Source: patent US20250144094A1 (Erasca, Inc., priority 2021, published 2025)

Molecular target: Recombinant human ULK1 (1-649) (Homo sapiens (Human), UniProt O75385)
Assay: ULK1 ADP Glo kinase activity assay, new method (ULKtide peptide substrate)
Conditions: 25° C., 40 minutes, read-out: ULK1 biochemical IC50
Procedure: Recombinant human ULK1 (1-649) protein expressed in Sf9 insect cells was obtained from SignalChem (Vancouver, BC), catalog #U01-11G. Active kinase was purified via N-terminal GST tag to >85% purity.
ADP GLO Kinase Assay Reagents were obtained from Promega Corp (Madison, WI), catalog #V9104.
Synthetic peptide substrate (ULKtide) with the amino acid sequence YANWLAASIYLDGKKK was obtained from ThermoFisher Scientific USA.
ULK1 inhibitor potency was determined using the luminescent ADP Glo Kinase Assay (Promega), a universal ADP detection system that measures kinase activity by quantifying the amount of ADP produced during a kinase reaction. ULK1 kinase reactions are performed in a standard 96-well microplate (20 μL reaction volume) at 25° C. for 40 minutes in the presence or absence of the test compound (12-point dilution series starting at 10 μM). Addition of peptide substrate and ATP initiates the kinase reaction.
The standard ADP Glo assay is performed in two steps. In step one, following the kinase reaction, an equal volume of ADP-Glo™ Reagent (20 μL) is added to terminate the kinase reaction and deplete the remaining ATP. In the second step, the Kinase Detection Reagent (10 μL) is added to simultaneously convert ADP to ATP and allow the newly synthesized ATP to be measured using a luciferase/luciferin reaction. Step two of the ADP Glo assay is performed in a white 384-well plate (20 μL final volume). Thirty minutes after the addition of the Detection reagent, light generated from the luciferase reaction is measured (1 second exposure) using a microplate compatible luminometer (CLARIOstar, BMG Labtech).
Inhibition of ULK1 kinase activity is determined for each test compound by comparison to DMSO only control wells. Inhibitor IC50 was calculated by plotting the change in luminescence after 30 minutes (response) versus inhibitor concentration (in log molar) then applying the four-parameter variable slope curve fit (GraphPad Prism). Inhibition of ULK1 in biochemical assay is found in Table 4.

Sequence of Recombinant human ULK1 (1-649) (O75385 1-649): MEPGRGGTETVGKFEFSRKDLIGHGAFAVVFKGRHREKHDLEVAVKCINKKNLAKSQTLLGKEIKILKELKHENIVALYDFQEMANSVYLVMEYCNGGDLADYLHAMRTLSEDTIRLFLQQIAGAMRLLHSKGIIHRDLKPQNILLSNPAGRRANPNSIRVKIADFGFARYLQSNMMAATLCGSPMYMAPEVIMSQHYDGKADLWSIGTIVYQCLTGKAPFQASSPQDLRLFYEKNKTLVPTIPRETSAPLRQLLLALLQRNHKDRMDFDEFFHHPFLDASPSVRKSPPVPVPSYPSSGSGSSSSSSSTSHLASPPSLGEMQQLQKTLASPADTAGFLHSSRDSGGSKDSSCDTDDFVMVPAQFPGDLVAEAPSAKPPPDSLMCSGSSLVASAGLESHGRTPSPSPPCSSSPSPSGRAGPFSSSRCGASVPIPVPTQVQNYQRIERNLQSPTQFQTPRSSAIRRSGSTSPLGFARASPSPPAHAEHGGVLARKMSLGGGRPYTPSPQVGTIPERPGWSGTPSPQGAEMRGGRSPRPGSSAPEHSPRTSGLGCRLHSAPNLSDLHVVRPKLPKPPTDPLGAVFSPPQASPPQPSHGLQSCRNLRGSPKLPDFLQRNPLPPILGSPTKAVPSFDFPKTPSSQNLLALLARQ

SMILES	IC50
CN1CCS(=O)(=O)c2cc(-c3nc(Nc4cc5c(cc4Cl)CCNC5)ncc3C(F)(F)F)sc2C1=O [Example 159, 7-(2-((6-chloro-1,2,3,4-tetrahydroisoquinolin-7-yl)amino)-5-(trifluoromethyl)pyrimidin-4-yl)-4-methyl-3,4-dihydrothieno[2,3-f][1,4]thiazepin-5(2H)-one 1,1-dioxide]	≤ 5 nM
CCc1cc2c(cc1Nc1ncc(C(F)(F)F)c(-c3cc4c(s3)C(=O)N(C)CCS4(=O)=O)n1)CNC2 [Example 160, 7-(2-((6-ethylisoindolin-5-yl)amino)-5-(trifluoromethyl)pyrimidin-4-yl)-4-methyl-3,4-dihydrothieno[2,3-f][1,4]thiazepin-5(2H)-one 1,1-dioxide]	≤ 5 nM
CSc1cc2c(cc1Nc1ncc(C(F)(F)F)c(-c3cc4c(s3)C(=O)N(C)CCS4(=O)=O)n1)CCNC2 [Example 161, 4-methyl-7-(2-((7-(methylthio)-1,2,3,4-tetrahydroisoquinolin-6-yl)amino)-5-(trifluoromethyl)pyrimidin-4-yl)-3,4-dihydrothieno[2,3-f][1,4]thiazepin-5(2H)-one 1,1-dioxide]	≤ 5 nM
CCN1CCc2cc(Nc3ncc(C(F)(F)F)c(-c4cc5c(s4)C(=O)N(C)CCS5(=O)=O)n3)c(Cl)cc2C1 [Example 162, 7-(2-((7-chloro-2-ethyl-1,2,3,4-tetrahydroisoquinolin-6-yl)amino)-5-(trifluoromethyl)pyrimidin-4-yl)-4-methyl-3,4-dihydrothieno[2,3-f][1,4]thiazepin-5(2H)-one 1,1-dioxide]	≤ 5 nM
O=S1(=O)CCOCc2sc(-c3nc(Nc4cc5c(cc4Cl)CNCC5)ncc3C(F)(F)F)cc21 [Example 163, 7-(2-((7-chloro-1,2,3,4-tetrahydroisoquinolin-6-yl)amino)-5-(trifluoromethyl)pyrimidin-4-yl)-2,3-dihydro-5H-thieno[3,2-e][1,4]oxathiepine 1,1-dioxide]	≤ 5 nM
CN1CCS(=O)(=O)c2cc(-c3nc(Nc4cc5c(cc4Cl)CNC5)ncc3C(F)(F)F)sc2C1=O [Example 164, 7-(2-((6-chloroisoindolin-5-yl)amino)-5-(trifluoromethyl)pyrimidin-4-yl)-4-methyl-3,4-dihydrothieno[2,3-f][1,4]thiazepin-5(2H)-one 1,1-dioxide]	≤ 5 nM
Cc1nn(C2CCNCC2)cc1Nc1ncc(C(F)(F)F)c(-c2cc3c(s2)C(=O)NCCS3(=O)=O)n1 [Example 165, 7-(2-((3-methyl-1-(piperidin-4-yl)-1H-pyrazol-4-yl)amino)-5-(trifluoromethyl)pyrimidin-4-yl)-3,4-dihydrothieno[2,3-f][1,4]thiazepin-5(2H)-one 1,1-dioxide]	> 100 nM
Cc1nn(C2CCNCC2)cc1Nc1ncc(C(F)(F)F)c(-c2cc3c(s2)C(=O)N(C)CCS3(=O)=O)n1 [Example 166, 4-methyl-7-(2-((3-methyl-1-(piperidin-4-yl)-1H-pyrazol-4-yl)amino)-5-(trifluoromethyl)pyrimidin-4-yl)-3,4-dihydrothieno[2,3-f][1,4]thiazepin-5(2H)-one 1,1-dioxide]	> 100 nM
CN1CCc2cc(Nc3ncc(C(F)(F)F)c(-c4cc5c(s4)C(=O)N(C4CC4)CCS5(=O)=O)n3)c(Cl)cc2C1 [Example 167, 7-(2-((7-chloro-2-methyl-1,2,3,4-tetrahydroisoquinolin-6-yl)amino)-5-(trifluoromethyl)pyrimidin-4-yl)-4-cyclopropyl-3,4-dihydrothieno[2,3-f][1,4]thiazepin-5(2H)-one 1,1-dioxide]	≤ 5 nM
CN1CCc2cc(Nc3ncc(C(F)(F)F)c(-c4cc5c(s4)C(=O)N(C4CCC4)CCS5(=O)=O)n3)c(Cl)cc2C1 [Example 168, 7-(2-((7-chloro-2-methyl-1,2,3,4-tetrahydroisoquinolin-6-yl)amino)-5-(trifluoromethyl)pyrimidin-4-yl)-4-cyclobutyl-3,4-dihydrothieno[2,3-f][1,4]thiazepin-5(2H)-one 1,1-dioxide]	≤ 5 nM
CN1CCc2cc(Cl)c(Nc3ncc(C(F)(F)F)c(-c4cc5c(s4)C(=O)N(C)CCS5(=O)=O)n3)cc2C1 [Example 169]	≤ 5 nM
CN1CCS(=O)(=O)c2cc(-c3nc(Nc4ccc5c(c4C4CC4)CNC5)ncc3C(F)(F)F)sc2C1=O [Example 170, 7-(2-((4-cyclopropylisoindolin-5-yl)amino)-5-(trifluoromethyl)pyrimidin-4-yl)-4-methyl-3,4-dihydrothieno[2,3-f][1,4]thiazepin-5(2H)-one 1,1-dioxide]	10 to 50 nM
CSc1cc2c(cc1Nc1ncc(C(F)(F)F)c(-c3cc4c(s3)C(=O)N(C)CCS4(=O)=O)n1)CCN(C)C2 [Example 171, 4-methyl-7-(2-((2-methyl-7-(methylthio)-1,2,3,4-tetrahydroisoquinolin-6-yl)amino)-5-(trifluoromethyl)pyrimidin-4-yl)-3,4-dihydrothieno[2,3-f][1,4]thiazepin-5(2H)-one 1,1-dioxide]	≤ 5 nM
CN1CCS(=O)(=O)c2cc(-c3nc(Nc4cc5c(cc4C4CC4)CNCC5)ncc3C(F)(F)F)sc2C1=O [Example 173, 7-(2-((7-cyclopropyl-1,2,3,4-tetrahydroisoquinolin-6-yl)amino)-5-(trifluoromethyl)pyrimidin-4-yl)-4-methyl-3,4-dihydrothieno[2,3-f][1,4]thiazepin-5(2H)-one 1,1-dioxide]	≤ 5 nM
CCc1cc(N2CCNCC2)ccc1Nc1ncc(C(F)(F)F)c(-c2cc3c(s2)C(=O)N(C)CCS3(=O)=O)n1 [Example 174, 7-(2-((2-ethyl-4-(piperazin-1-yl)phenyl)amino)-5-(trifluoromethyl)pyrimidin-4-yl)-4-methyl-3,4-dihydrothieno[2,3-f][1,4]thiazepin-5(2H)-one 1,1-dioxide]	≤ 5 nM
CCc1cc2c(cc1Nc1ncc(C(F)(F)F)c(-c3cc4c(s3)C(=O)N(CC(F)(F)F)CCS4(=O)=O)n1)CCNC2 [Example 175, 7-(2-((7-ethyl-1,2,3,4-tetrahydroisoquinolin-6-yl)amino)-5-(trifluoromethyl)pyrimidin-4-yl)-4-(2,2,2-trifluoroethyl)-3,4-dihydrothieno[2,3-f][1,4]thiazepin-5(2H)-one 1,1-dioxide]	≤ 5 nM
Cc1c(Nc2ncc(C(F)(F)F)c(-c3cc4c(s3)C(=O)N(C)CCS4(=O)=O)n2)cnn1C1CCNCC1 [Example 176, 4-methyl-7-(2-((5-methyl-1-(piperidin-4-yl)-1H-pyrazol-4-yl)amino)-5-(trifluoromethyl)pyrimidin-4-yl)-3,4-dihydrothieno[2,3-f][1,4]thiazepin-5(2H)-one 1,1-dioxide]	> 100 nM
CN1CCS(=O)(=O)c2cc(-c3nc(Nc4cc5c(cc4C4CC4)CNC5)ncc3C(F)(F)F)sc2C1=O [Example 177, 7-(2-((6-cyclopropylisoindolin-5-yl)amino)-5-(trifluoromethyl)pyrimidin-4-yl)-4-methyl-3,4-dihydrothieno[2,3-f][1,4]thiazepin-5(2H)-one 1,1-dioxide]	≤ 5 nM
Cc1c(Nc2ncc(C(F)(F)F)c(-c3cc4c(s3)C(=O)NCCS4(=O)=O)n2)cnn1C1CCNCC1 [Example 178, 7-(2-((5-methyl-1-(piperidin-4-yl)-1H-pyrazol-4-yl)amino)-5-(trifluoromethyl)pyrimidin-4-yl)-3,4-dihydrothieno[2,3-f][1,4]thiazepin-5(2H)-one 1,1-dioxide]	> 100 nM
O=C1NCCS(=O)(=O)c2cc(-c3nc(Nc4cc5c(cc4Cl)CNC5)ncc3C(F)(F)F)sc21 [Example 180, 7-(2-((6-chloroisoindolin-5-yl)amino)-5-(trifluoromethyl)pyrimidin-4-yl)-3,4-dihydrothieno[2,3-f][1,4]thiazepin-5(2H)-one 1,1-dioxide]	≤ 5 nM
CN1Cc2cc(Cl)c(Nc3ncc(C(F)(F)F)c(-c4cc5c(s4)C(=O)N(C)CCS5(=O)=O)n3)cc2C1 [Example 181, 7-(2-((6-chloro-2-methylisoindolin-5-yl)amino)-5-(trifluoromethyl)pyrimidin-4-yl)-4-methyl-3,4-dihydrothieno[2,3-f][1,4]thiazepin-5(2H)-one 1,1-dioxide]	≤ 5 nM
Cc1nn(C2CCN(C)CC2)cc1Nc1ncc(C(F)(F)F)c(-c2cc3c(s2)C(=O)NCCS3(=O)=O)n1 [Example 182, 7-(2-((3-methyl-1-(1-methylpiperidin-4-yl)-1H-pyrazol-4-yl)amino)-5-(trifluoromethyl)pyrimidin-4-yl)-3,4-dihydrothieno[2,3-f][1,4]thiazepin-5(2H)-one 1,1-dioxide]	> 100 nM
Cc1nn(C2CCN(C)CC2)cc1Nc1ncc(C(F)(F)F)c(-c2cc3c(s2)C(=O)N(C)CCS3(=O)=O)n1 [Example 183, 4-methyl-7-(2-((3-methyl-1-(1-methylpiperidin-4-yl)-1H-pyrazol-4-yl)amino)-5-(trifluoromethyl)pyrimidin-4-yl)-3,4-dihydrothieno[2,3-f][1,4]thiazepin-5(2H)-one 1,1-dioxide]	> 100 nM
